Laboratory results reported in patent US20200114012A1, “METHOD FOR PRODUCING A LIQUID COMPOSITION” (The University of Liverpool, priority 2017, published 2020).

Columns and labels:
[1] = Precipitation of TDF particulates with stabiliser combinations (Example 5); type: physicochemical; settings: Stabiliser B combined with Stabiliser A AOT, procedure of Example 2
Procedure: 800 μL of the stabiliser-containing dichloromethane solution was pipetted into a 4 mL volume glass vial. 200 μL of TDF-containing methanol solution was rapidly pipetted into the same vial, which was then sealed and briefly shaken. A white, hazy suspension formed instantaneously. […] The TDF loading of the particulates was altered by changing the concentration of the methanol and dichloromethane solutions prior to mixing. It should be noted that this approach allows for different volumes of the TDF particulate suspensions to be produced simply by increasing the volumes added, so long as the 4:1 ratio of dichloromethane to methanol is maintained, this allows for fine control of the concentration of the TDF particles dispersed in the oil of the liquid composition.
Following the procedure described in Example 2, the following combinations of stabilisers were used to form TDF particulates (see table 7 below).

[2] = Solubility of TDF in solvents and of TDF particulates in oils; type: physicochemical
Description: Therefore methanol was used for the first solvent. TDF is not soluble in dichloromethane, which was used as the second solvent.
A selection of biocompatible natural oils were used to form liquid compositions. These oils were selected as the TDF particulates were insoluble in them and the oils could be dissolved into the mixed solvent system. The oils used were peanut oil, soy bean oil, sesame oil and safflower oil.

| Successful Precipitation [1] | solubility in dichloromethane ([2]; dichloromethane) | solubility ([2]; methanol, organic solvent or mixture) | Compound |
| --- | --- | --- | --- |
| Yes |  |  | polyoxyethylene (2) stearyl ether [Brij ™ S2] |
| Yes |  |  | propylene glycol monopalmitostearate [Monosteol ™] |
| Yes |  |  | polyglyceryl-3 diisostearate [Plurol ™ diisosteraque] |
| Yes |  |  | polyglyceryl-6 dioleate [Plurol ™ Olique] |
| Yes |  |  | propylene glycol monolaurate (type I) [Lauroglycol ™ FCC] |
| Yes |  |  | CCCCC/C=C\C/C=C\CCCCCCCC(=O)OCC(O)CO (stereo not drawn) [Maisine ™ 35-1, glyceryl monolinoleate] |
|  | not soluble | ≤ 80 mg/mL | CC(C)OC(=O)OCOP(=O)(CO[C@H](C)Cn1cnc2c(N)ncnc21)OCOC(=O)OC(C)C.O=C(O)/C=C/C(=O)O [TDF, tenofovir disoproxil fumerate] |
| Yes |  |  | polyoxyethylenesorbitan monopalmitate [Tween ™ 40] |
| Yes |  |  | polyethylene glycol sorbitan monooleate [Tween ™ 80] |
| Yes |  |  | sorbitan oleate [Span ™ 80] |
| Yes |  |  | propylene glycol monolaurate (type II) [Lauroglycol ™ 90] |

| Compound | Successful Precipitation [1] | solubility in dichloromethane ([2]; dichloromethane) | solubility ([2]; methanol, organic solvent or mixture) |
| --- | --- | --- | --- |
| propylene glycol monocaprylate (type I) [Capryol ™ PGMC] | Yes |  |  |
| CCCCCCCC/C=C\CCCCCCCC(=O)OCC(O)CO (stereo not drawn) [Pecol ™, glycerol mono-oleate] | Yes |  |  |
| propylene glycol monocaprylate (type II) [Capryol ™ 90] | Yes |  |  |
